Laboratory results taken from PubChem BioAssay (NCI).
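Compound exposure: 48 hours, 5 concentrations, 96-well plates. GI50: concentration for 50% inhibition of growth. At the TGI there is no net growth.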

Experiments:
Experiment in all cases: DTP human tumour cell line panel, 48 h
[1] = tested on: SK-MEL-5 melanoma
[2] = tested on: SF-295 CNS
[3] = tested on: HL-60(TB) leukemia
[4] = tested on: RXF 393 renal
[5] = tested on: A498 renal
[6] = tested on: HS 578T breast
[7] = tested on: SK-MEL-2 melanoma
[8] = tested on: MCF7 breast
[9] = tested on: NCI/ADR-RES ovarian
[10] = tested on: IGROV1 ovarian
[11] = tested on: SW-620 colon
[12] = tested on: TK-10 renal
[13] = tested on: BT-549 breast
[14] = tested on: NCI-H460 lung
[15] = tested on: OVCAR-8 ovarian
[16] = tested on: UACC-257 melanoma
[17] = tested on: NCI-H23 lung
[18] = tested on: DU-145 prostate
[19] = tested on: A549 NSCLC
[20] = tested on: MALME-3M melanoma
[21] = tested on: CCRF-CEM leukemia
[22] = tested on: ACHN renal
[23] = tested on: MOLT-4 leukemia
[24] = tested on: SR leukemia
[25] = tested on: SNB-19 CNS
[26] = tested on: M14 melanoma
[27] = tested on: SK-OV-3 ovarian
[28] = tested on: UO-31 renal
[29] = tested on: T-47D breast
[30] = tested on: PC-3 prostate
[31] = tested on: SN12C renal
[32] = tested on: SF-539 CNS
[33] = tested on: HCT-15 colon
[34] = tested on: MDA-MB-435
[35] = tested on: MDA-MB-231 breast
[36] = tested on: NCI-H226 lung
[37] = tested on: CAKI-1 renal
[38] = tested on: KM12 colon
[39] = tested on: OVCAR-3 ovarian
[40] = tested on: 786-0 renal
[41] = tested on: UACC-62 melanoma
[42] = tested on: RPMI-8226 leukemia
[43] = tested on: OVCAR-4 ovarian
[44] = tested on: NCI-H522 lung
[45] = tested on: LOX IMVI melanoma
[46] = tested on: HOP-62 NSCLC
[47] = tested on: COLO 205 colon
[48] = tested on: SNB-75 CNS
[49] = tested on: HCC-2998 colon
[50] = tested on: U251 CNS
[51] = tested on: K-562 leukemia
[52] = tested on: HT29 colon
[53] = tested on: HCT-116 colon
[54] = tested on: SK-MEL-28 melanoma
[55] = tested on: SF-268 CNS

`CC(=O)Nc1ccc2c(C3=C(c4cn(C)c5ccccc45)C(=O)NC3=O)cn(C)c2c1` gave a GI50 [1] of 637 nM, a TGI [1] of 3120 nM and a GI50 [2] of 552 nM. The TGI [2] was > 5630 nM, the GI50 [3] was 921 nM and the TGI [3] was > 25000 nM. For the same compound, the GI50 [4] was 512 nM, the TGI [4] was > 7020 nM and the GI50 [5] was 386 nM. For the same compound, the TGI [5] was 12800 nM, the GI50 [6] was 443 nM and the TGI [6] was > 25000 nM. The GI50 [7] was 5690 nM, the TGI [7] was > 25000 nM and the GI50 [8] was 294 nM. The TGI [8] was > 25000 nM, the GI50 [9] was 13900 nM and the TGI [9] was > 25000 nM. For the same compound, the GI50 [10] was 1470 nM, the TGI [10] was > 25000 nM and the GI50 [11] was 892 nM. The TGI [11] was > 25000 nM, the GI50 [12] was > 25000 nM and the TGI [12] was > 25000 nM. For the same compound, the GI50 [13] was > 25000 nM, the TGI [13] was > 25000 nM and the GI50 [14] was 881 nM. The TGI [14] was > 25000 nM, the GI50 [15] was 900 nM and the TGI [15] was > 25000 nM. For the same compound, the GI50 [16] was > 14900 nM, the TGI [16] was > 25000 nM and the GI50 [17] was 1160 nM. The TGI [17] was > 25000 nM, the GI50 [18] was 1010 nM and the TGI [18] was > 24200 nM. The GI50 [19] was 1050 nM, the TGI [19] was > 25000 nM and the GI50 [20] was > 25000 nM. For the same compound, the TGI [20] was > 25000 nM, the GI50 [21] was 77.3 nM and the TGI [21] was > 25000 nM. The GI50 [22] was 1420 nM, the TGI [22] was > 25000 nM and the GI50 [23] was 1060 nM. The TGI [23] was > 25000 nM, the GI50 [24] was 363 nM and the TGI [24] was > 25000 nM. For the same compound, the GI50 [25] was 5130 nM, the TGI [25] was > 25000 nM and the GI50 [26] was 945 nM. For the same compound, the TGI [26] was > 25000 nM, the GI50 [27] was 1530 nM and the TGI [27] was > 25000 nM. For the same compound, the GI50 [28] was > 9450 nM, the TGI [28] was > 25000 nM and the GI50 [29] was > 25000 nM. For the same compound, the TGI [29] was > 25000 nM, the GI50 [30] was 802 nM and the TGI [30] was > 25000 nM. For the same compound, the GI50 [31] was 1250 nM, the TGI [31] was > 25000 nM and the GI50 [32] was 376 nM. The TGI [32] was 1400 nM, the GI50 [33] was 1240 nM and the TGI [33] was > 25000 nM. The GI50 [34] was 118 nM, the TGI [34] was 842 nM and the GI50 [35] was 821 nM. The TGI [35] was > 25000 nM, the GI50 [36] was > 6260 nM and the TGI [36] was > 25000 nM. For the same compound, the GI50 [37] was 2080 nM, the TGI [37] was > 25000 nM and the GI50 [38] was 749 nM. For the same compound, the TGI [38] was > 15000 nM, the GI50 [39] was 737 nM and the TGI [39] was 3100 nM. For the same compound, the GI50 [40] was 2090 nM, the TGI [40] was > 25000 nM and the GI50 [41] was 1300 nM. The TGI [41] was > 25000 nM, the GI50 [42] was 1110 nM and the TGI [42] was > 25000 nM. The GI50 [43] was 1280 nM, the TGI [43] was > 25000 nM and the GI50 [44] was 218 nM. The TGI [44] was 1310 nM, the GI50 [45] was 634 nM and the TGI [45] was > 25000 nM. The GI50 [46] was 1150 nM, the TGI [46] was > 25000 nM and the GI50 [47] was 691 nM. For the same compound, the TGI [47] was 1720 nM, the GI50 [48] was 215 nM and the TGI [48] was > 25000 nM. For the same compound, the GI50 [49] was 890 nM, the TGI [49] was > 25000 nM and the GI50 [50] was 889 nM. The TGI [50] was > 25000 nM, the GI50 [51] was 762 nM and the TGI [51] was > 25000 nM. The GI50 [52] was 833 nM, the TGI [52] was > 25000 nM and the GI50 [53] was 697 nM. The TGI [53] was > 16600 nM, the GI50 [54] was > 5940 nM and the TGI [54] was > 25000 nM. For the same compound, the GI50 [55] was 1360 nM and the TGI [55] was > 25000 nM.
